Source: patent US20100168149A1, “Camptothecin Analogue Compounds, a Process for Their Preparation and Pharmaceutical Compositions Containing Them” (priority 2005, published 2010)

Columns and labels:
[1] = test system: human colon carcinoma HT29; assay: In vitro cytotoxicity, Microculture Tetrazolium Assay, HT29; format: cell-based; details: HT-29, HT29, 96 hours exposure, read-out: IC50 (concentration of cytotoxic agent which inhibits proliferation of the treated cells by 50%)
Experimental: (§1) The murine leukaemia L1210 and the human colon carcinomas HCT116 and HT29 were used in vitro. The cells are cultured in RPMI 1640 complete culture medium containing 10% foetal calf serum, 2 mM glutamine, 50 units/ml of penicillin, 50 μg/ml of streptomycin and 10 mM Hepes, pH=7.4. The cells are distributed on microplates and are exposed to the cytotoxic compounds for 4 doubling times, that is to say 48 hours (L1210) or 96 hours (HCT116 and HT29). The number of viable cells is then quantified by a […] assay, the Microculture Tetrazolium Assay (J. Carmichael et al., Cancer Res.; 47, 936-942, (1987)). The results are expressed in terms of the IC50 (the concentration of cytotoxic agent which inhibits proliferation of the treated cells by 50%).

[2] = test system: murine leukaemia L1210; assay: In vitro cytotoxicity, Microculture Tetrazolium Assay, L1210; format: cell-based; details: Mus musculus; L1210, 48 hours exposure; read-out: IC50 (concentration of cytotoxic agent which inhibits proliferation of the treated cells by 50%)
Experimental: as §1

| Structure (SMILES) | IC50 [1] [nM] | IC50 [2] [nM] |
| --- | --- | --- |
| CCC1(O)C(=O)Cc2c1cc1n(c2=O)Cc2c-1nc1cc3c(cc1c2-c1ccc(C)cc1)OCO3 (stereo not drawn) [Example 1, 7-Ethyl-7-hydroxy-2,3-methylenedioxy-13-(4-methylphenyl)-9,12-dihydro-7H-cyclopenta[6,7]indolizino[1,2-b]quinoline-8,10-dione] | 3.2 |  |
| CCC1(O)C(=O)Cc2c1cc1n(c2=O)Cc2c-1nc1cc3c(cc1c2-c1ccc(N(C)C)cc1)OCO3 (stereo not drawn) [Example 6, 7-Ethyl-2,3-methylenedioxy-7-hydroxy-13-[4-(dimethylamino)phenyl]-9,12-dihydro-7H-cyclopenta[6,7]indolizino[1,2-b]quinoline-8,10-dione] | 4.7 | 10.4 |
